From ChEMBL document CHEMBL1158159, “Design, synthesis, and structure-affinity relationship studies in NK1 receptor ligands based on azole-fused quinolinecarboxamide moieties” (Bioorg Med Chem, 2008)

Biological target: Substance-P receptor (Homo sapiens, UniProt P25103)
Test: Displacement of [125I]BH-SP to human recombinant NK1 receptor in CHO cells
Type: cell-based

Substance-P receptor, sequence (P25103 whole entry): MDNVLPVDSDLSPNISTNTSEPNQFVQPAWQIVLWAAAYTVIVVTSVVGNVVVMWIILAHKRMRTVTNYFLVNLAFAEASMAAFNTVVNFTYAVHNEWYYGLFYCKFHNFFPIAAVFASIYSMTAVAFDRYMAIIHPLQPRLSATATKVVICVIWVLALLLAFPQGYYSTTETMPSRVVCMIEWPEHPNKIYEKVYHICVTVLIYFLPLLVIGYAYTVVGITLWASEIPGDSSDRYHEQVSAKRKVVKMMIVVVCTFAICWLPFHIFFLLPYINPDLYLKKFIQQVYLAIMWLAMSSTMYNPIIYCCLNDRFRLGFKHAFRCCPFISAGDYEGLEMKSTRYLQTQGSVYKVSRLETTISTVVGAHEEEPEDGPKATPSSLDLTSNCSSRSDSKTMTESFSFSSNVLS

Row | Structure (SMILES) | IC50
1 | CN(Cc1cc(C(F)(F)F)cc(C(F)(F)F)c1)C(=O)c1c(-c2ccccc2)c2ccccc2n2ccnc12 | 38 nM
2 | Cc1ccc(-c2c(C(=O)NCc3cc(C(F)(F)F)cc(C(F)(F)F)c3)c3nnnn3c3ccccc23)cc1 | 401 nM
3 | O=C(NCc1cc(C(F)(F)F)cc(C(F)(F)F)c1)c1c(-c2ccccc2)c2ccccc2n2cncc12 | 146 nM
4 | Cc1ccc(-c2c(C(=O)N(C)Cc3cc(C(F)(F)F)cc(C(F)(F)F)c3)c3nnnn3c3ccccc23)cc1 | 55 nM
5 | O=C(NCc1cc(C(F)(F)F)cc(C(F)(F)F)c1)c1c(-c2ccccc2)c2ccccc2n2cnnc12 | 542 nM
6 | CN(Cc1cc(C(F)(F)F)cc(C(F)(F)F)c1)C(=O)c1c(-c2ccccc2)c2ccccc2n2cccc12 | 36 nM
7 | O=C(NCc1cc(C(F)(F)F)cc(C(F)(F)F)c1)c1c(-c2ccccc2)c2ccccc2n2ccnc12 | 1230 nM
8 | CN(Cc1cc(C(F)(F)F)cc(C(F)(F)F)c1)C(=O)c1c(-c2ccc(F)cc2)c2ccccc2n2nnnc12 | 21 nM
9 | COc1ccccc1CNC(=O)c1c(-c2ccccc2)c2ccccc2n2nnnc12 | 2750 nM
10 | COc1cc(CNC(=O)c2c(-c3ccccc3)c3ccccc3n3nnnc23)cc(OC)c1 | 780 nM
11 | O=C(NCc1cc(C(F)(F)F)cc(C(F)(F)F)c1)c1c(-c2ccccc2)c2ccccc2n2nnnc12 | 311 nM
12 | CN(Cc1cc(C(F)(F)F)cc(C(F)(F)F)c1)C(=O)c1c(-c2ccccc2)c2ccccc2n2cnnc12 | 9 nM
13 | O=C(NCc1cc(C(F)(F)F)cc(C(F)(F)F)c1)c1c(-c2ccccc2)c2ccccc2n2cccc12 | 390 nM
14 | CN(Cc1cc(C(F)(F)F)cc(C(F)(F)F)c1)C(=O)c1c(-c2ccccc2)c2ccccc2n2cncc12 | 4.3 nM
15 | CN(Cc1cc(C(F)(F)F)cc(C(F)(F)F)c1)C(=O)c1c(-c2ccccc2)c2ccccc2n2nnnc12 | 26 nM
16 | O=C(NCc1cc(C(F)(F)F)cc(C(F)(F)F)c1)c1c(-c2ccc(F)cc2)c2ccccc2n2nnnc12 | 235 nM
